Measurements: BindingDB's records for doi:10.1021/jm000497n (Welfide, 2001)

Target: Chymotrypsin A (Bos taurus)
Assay: In vitro inhibitory activity was determined against bovine pancreas chymotrypsin

`Cc1cccc(-c2ncc(N)c(=O)n2CC(=O)NC(Cc2ccccc2)C(=O)C(F)(F)C(=O)NCC(N)=O)c1` (centres undefined) [4-[2-(5-Amino-6-oxo-2-m-tolyl-6H-pyrimidin-1-yl)-acetylamino]-2,2-difluoro-3-oxo-5-phenyl-pentanoic acid carbamoylmethyl-amide] and `Cc1cccc(-c2ncc(N)c(=O)n2CC(=O)NC(Cc2ccccc2)C(=O)C(F)(F)C(=O)NCCC(=O)O)c1` (centres undefined) [3-{4-[2-(5-Amino-6-oxo-2-m-tolyl-6H-pyrimidin-1-yl)-acetylamino]-2,2-difluoro-3-oxo-5-phenyl-pentanoylamino}-propionic acid] are within 1.5-fold of each other in Ki: 1440 nM for the first, 1430 nM for the second.

Compared with `Cc1cccc(-c2ncc(N)c(=O)n2CC(=O)NC(Cc2ccccc2)C(=O)C(F)(F)C(=O)NCc2ccccc2)c1` (centres undefined) [4-[2-(5-Amino-6-oxo-2-m-tolyl-6H-pyrimidin-1-yl)-acetylamino]-2,2-difluoro-3-oxo-5-phenyl-pentanoic acid benzylamide], `Nc1cnc(-c2ccc(F)cc2)n(CC(=O)NC(Cc2ccccc2)C(=O)C(F)(F)C(=O)NCc2ccccc2)c1=O` (centres undefined) [4-{2-[5-Amino-2-(4-fluoro-phenyl)-6-oxo-6H-pyrimidin-1-yl]-acetylamino}-2,2-difluoro-3-oxo-5-phenyl-pentanoic acid benzylamide] is 1.7-fold higher in Ki: 1920 nM for the first, 3280 nM for the second.
